In US20240315992A1, “AMINOXY ACID-BASED ANTIBACTERIAL COMPOUNDS AND METHODS THEREOF” (The University of Hong Kong, priority 2023, published 2024):

Tests used:
[1] = system: Staphylococcus aureus ATCC29213 Δatl, ΔSAOUHSC_02855 and ΔSAOUHSC_01895; test: Bactericidal activity in autolysin deletion mutants; assay type: cell-based; details: 4×MIC (12.5 μM), 24 hours, compared to wild type
Protocol: FIG. 15 is the bar graph showing the reduction of bactericidal effect of compound 8 in autolysin deletion mutants of Staphylococcus aureus. Staphylococcus aureus ATCC29213 WT, Staphylococcus aureus ATCC 29213, Δatl, ΔSAOUHSC_02855 and ΔSAOUHSC_01895 was incubated with 4×MIC compounds 8 for 24 hours. 10 μL bacteria were serial diluted and spotted on Mueller Hinton Agar. Colonies were enumerated next day. Data represented the mean±S.D. of biological triplicates. Statistical analysis was performed by unpaired t test compared to wild type in 95% confidence interval (*p<0.05; **p<0.01).
Target DNA upstream 1 kb and downstream 1 kb were PCR amplified from Staphylococcus aureus genomic DNA. The two DNA inserts were ligated to fuse upstream and downstream DNA fragments by overlap PCR. The ligated PCR product was cloned to pKOR1 plasmid using Vazyme ClonExpress®II One Step Cloning Kit, and transformed into Escherichia. coli top 10, plated on LBA containing ampicillin (100 μg/mL), and incubated under 30° C. overnight. Colony PCR was performed with Sanger sequencing for selection of transformants. The plasmid DNA was extracted and subsequently transformed into Staphylococcus aureus RN4220 and ATCC 29213 in TSA containing chloramphenicol (10 μg/mL). […]

[2] = system: MRSA Mu3 cell membrane potential; test: Membrane potential monitored by DiSC3(5); assay type: cell-based, Staphylococcus aureus
Protocol: FIG. 11 is a line graph showing compound 8 can depolarize Staphylococcus aureus cell membrane under sub-inhibitory concentration and hyperpolarize Staphylococcus aureus cell membrane under inhibitory concentration. Membrane potential was monitored by DiSc3(5) over time (s). Extracellular buffer contained 10 mM HEPEs buffer, 5 mM glucose and 100 mM NaCl, pH 7.1. At t=100 s, 6 μL different concentration of compound 8 and 10 mM valinomycin (Vln) were added to 594 μL MRSA Mu3 pre-incubated with 0.4 μM DiSC3(5). The fluorescence signal was further monitored for 500 s. Data represented the mean±S.D. of technical triplicates.
Typically, an overnight culture of MRSA Mu3 was sub-cultured 1:100 in fresh CAMH and regrown to exponential phase. The bacteria were harvested (3,000×g, 5 min), washed, and re-suspended in a solution with 10 mM HEPEs buffer, 5 mM glucose and 100 mM KCl or 100 mM NaCl (pH 7.2). The bacteria were diluted to OD595 0.3 with the same buffer. […] Bacteria were incubated in darkness for 20 minutes or until fluorescence signal become stable. Fluorescence signal was recorded using Hitachi F-4500 Florescence Spectrometer. In a 1 mL cuvette, 594 μL bacteria incubated with DiSC3(5) were added and the fluorescence was monitored for 100 s. […] The fluorescence was monitored for further 500 s. […]

[3] = system: Staphylococcus aureus Mu3; test: Antibacterial effect in combination with calcium channel blockers; assay type: cell-based; details: 12.5 μM compound 8 (4×MIC), dose dependent
Protocol: (§1) Exponential phase Staphylococcus aureus Mu3 was treated with compound 8 (4×MIC) or combination with calcium channel blocker. Data were representative of mean±S.D. of four individual experiments with error bars. Statistical analysis was performed by one-way ANOVA with Dunnett's post-test to calculate p-values adjusted for multiple comparisons with initial bacteria inoculum as control condition (*p<0.05; **p<0.01; ***p<0.001).
as §1, with “Data” for “Exponential phase Staphylococcus aureus Mu3 was treated with compound 8 (4×MIC) or combination with calcium channel blocker. Data”

SMILES: CC(C)C[C@H](ONC(=O)[C@@H](COCc1ccccc1)ONC(=O)c1cc(C(F)(F)F)cc(C(F)(F)F)c1)C(=O)Nc1ccccc1 [Compound 8]
- bactericidal activity in autolysin deficient Staphylococcus aureus [1]: diminished bactericidal activity
- cell membrane potential under inhibitory concentration ([2]; inhibitory concentration): hyperpolarize
- cell membrane potential under sub-inhibitory concentration ([2]; sub-inhibitory concentration): depolarize
- antibacterial effect in combination with calcium channel blocker verapamil or benidipine [3]: calcium channel blockers can antagonize the antibacterial effect
